Where two headings read alike, the source gives them in different places.
Tests used:
K-Ras G12S = biological target: T1, K-Ras G12S (Homo sapiens, UniProt P01116, G12S); experiment: HTRF assay of the K-Ras / SOS1 interaction; type: biochemical; conditions: IC50 (against K-Ras G12D) to IC50 (against K-Ras G12S)
T1 construct: made in house; host or cells: E. coli (e.g., BL21 (DE3))
Summary of the method: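 Compounds (duplicates, 10 µM to 0.01 µM) were incubated ≥~10 min with Eu-labelled GST-K-Ras G12S and XL665-labelled His-hSOS1 in HEPES pH 7.4 buffer containing NaCl, DTT, BSA and Igepal. Disruption measured as HTRF emission ratio 665/620 nm, fitted to IC50.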

GP2D cells = experiment: Cell proliferation assay (CellTiter-Glo), K-Ras G12D cells; type: cell-based; conditions: read-out: Inhibition of GP2D Cells (IC50)
Summary of the method: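 CellTiter-Glo luminescence, taken roughly 5 days after dosing, measured growth of G12D-mutant GP2D cells in DMEM/2 mM glutamine/10% FBS. Compound dilution series (e.g., 9 points, 3-fold) added the day after plating. Four-parameter fitting gave IC50.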

T1 sequence (P01116 1-188 isoform P01116-2 G12S): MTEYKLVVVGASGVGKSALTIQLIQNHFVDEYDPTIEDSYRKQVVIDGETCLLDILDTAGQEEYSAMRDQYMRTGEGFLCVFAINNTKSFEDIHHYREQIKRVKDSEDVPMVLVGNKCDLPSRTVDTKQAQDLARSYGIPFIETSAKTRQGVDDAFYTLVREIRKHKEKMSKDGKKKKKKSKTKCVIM

## Nc1nc2c(-c3c(Cl)cc4c(N5C6CCC5CN(C(=O)n5cncn5)C6)nc(OC[C@@]56CCCN5C[C@H](F)C6)nc4c3F)ccc(F)c2s1 [Compound A239, (8-(7-(2-amino-7-fluorobenzo[d]thiazol-4-yl)-6-chloro-8-fluoro-2-(((2R,7aS)-2-fluorotetrahydro-1H-pyrrolizin-7a(5H)-yl)methoxy)quinazolm-4-yl)-3,8-diazabicyclo[3.2.1]octan-3-yl)(1H-1,2,4-triazol-1-yl)methanone]
K-Ras G12S
  Ratio of IC50 KRAS G12D vs. IC50 KRAS G12S: A (A: indicates that the ratio of IC50 against KrasG12D vs. IC50 against KrasG12S is 1-fold or greater)
GP2D cells; GP2D cells (K-Ras G12D)
  IC50: ≤ 1000 nM

## C[C@@H]1CN(C(=O)n2cncn2)[C@@H](C)CN1c1nc(OC[C@@]23CCCN2C[C@H](F)C3)nc2c(F)c(-c3ccc(F)c4sc(N)nc34)c(Cl)cc12 [Compound A244, ((2S,5R)-4-(7-(2-amino-7-fluorobenzo[d]thiazol-4-yl)-6-chloro-8-fluoro-2-(((2R,7aS)-2-fluorotetrahydro-1H-pyrrolizin-7a(5H)-yl)methoxy)quinazolin-4-yl)-2,5-dimethylpiperazin-1-yl)(1H-1,2,4-triazol-1-yl)methanone]
K-Ras G12S
  Ratio of IC50 KRAS G12D vs. IC50 KRAS G12S: A (A: indicates that the ratio of IC50 against KrasG12D vs. IC50 against KrasG12S is 1-fold or greater)
GP2D cells; GP2D cells (K-Ras G12D)
  IC50: 1000 to 10000 nM

## N#Cc1cnn(C(=O)N2CC3COCC(C2)N3c2nc(OC[C@@]34CCCN3C[C@H](F)C4)nc3c(F)c(-c4ccc(F)c5sc(N)c(C#N)c45)c(Cl)cc23)c1 [Compound A249, 1-(9-(7-(2-amino-3-cyano-7-fluorobenzo[b]thiophen-4-yl)-6-chloro-8-fluoro-2-(((2R,7aS)-2-fluorotetrahydro-1H-pyrrolizin-7a(5H)-yl)methoxy)quinazolin-4-yl)-3-oxa-7,9-diazabicyclo[3.3.1]nonane-7-carbonyl)-1H-pyrazole-4-carbonitrile]
K-Ras G12S
  Ratio of IC50 KRAS G12D vs. IC50 KRAS G12S: A (A: indicates that the ratio of IC50 against KrasG12D vs. IC50 against KrasG12S is 1-fold or greater)
GP2D cells; GP2D cells (K-Ras G12D)
  IC50: ≤ 1000 nM

## Nc1nc2c(-c3c(Cl)cc4c(N5CCC6(CCN(C(=O)n7cncn7)CC6)CC5)nc(OC[C@@]56CCCN5C[C@H](F)C6)nc4c3F)ccc(F)c2s1 [Compound A250, (9-(7-(2-amino-7-fluorobenzo[d]thiazol-4-yl)-6-chloro-8-fluoro-2-(((2R,7aS)-2-fluorotetrahydro-1H-pyrrolizin-7a(5H)-yl)methoxy)quinazolin-4-yl)-3,9-diazaspiro[5.5]undecan-3-yl)(1H-1,2,4-triazol-1-yl)methanone]
K-Ras G12S
  Ratio of IC50 KRAS G12D vs. IC50 KRAS G12S: A (A: indicates that the ratio of IC50 against KrasG12D vs. IC50 against KrasG12S is 1-fold or greater)
GP2D cells; GP2D cells (K-Ras G12D)
  IC50: 1000 to 10000 nM

## Nc1nc2c(-c3c(Cl)cc4c(N5CC6(CN(C(=O)n7cncn7)C6)C5)nc(OC[C@@]56CCCN5C[C@H](F)C6)nc4c3F)ccc(F)c2s1 [Compound A264, (6-(7-(2-amino-7-fluorobenzo[d]thiazol-4-yl)-6-chloro-8-fluoro-2-(((2R,7aS)-2-fluorotetrahydro-1H-pyrrolizin-7a(5H)-yl)methoxy)quinazolm-4-yl)-2,6-diazaspiro[3.3]heptan-2-yl)(1H-1,2,4-triazol-1-yl)methanone]
K-Ras G12S
  Ratio of IC50 KRAS G12D vs. IC50 KRAS G12S: A (A: indicates that the ratio of IC50 against KrasG12D vs. IC50 against KrasG12S is 1-fold or greater)
GP2D cells; GP2D cells (K-Ras G12D)
  IC50: 1000 to 10000 nM

## Nc1nc2c(-c3c(Cl)cc4c(N5C6COCC5CN(C(=O)n5cncn5)C6)nc(OC[C@@]56CCCN5C[C@H](F)C6)nc4c3F)ccc(F)c2s1 [Compound A270, (9-(7-(2-amino-7-fluorobenzo[d]thiazol-4-yl)-6-chloro-8-fluoro-2-(((2R,7aS)-2-fluorotetrahydro-1H-pyrrolizin-7a(5H)-yl)methoxy)quinazolin-4-yl)-3-oxa-7,9-diazabicyclo[3.3.1]nonan-7-yl)(1H-1,2,4-triazol-1-yl)methanone]
K-Ras G12S
  Ratio of IC50 KRAS G12D vs. IC50 KRAS G12S: A (A: indicates that the ratio of IC50 against KrasG12D vs. IC50 against KrasG12S is 1-fold or greater)
GP2D cells; GP2d
  IC50: ≤ 1000 nM
